Format in all cases: functional
The nature of experiment [1]: Percentage of apoptotic cells in human peripheral blood mononuclear cells after 72 hour incubation at the concentration 30 uM. To be noted: at 30 µM.
Experiment [2] can be described thus: Percentage of apoptotic cells in human peripheral blood mononuclear cells after 72 hour incubation at the concentration 10 uM. The following applies: at 10 µM.
Experiment [3] can be described thus: Percentage of apoptotic cells in human peripheral blood mononuclear cells after 72 hour incubation at the concentration 1 uM. The following applies: at 1 µM.
The nature of experiment [4]: Percentage of apoptotic cells in human peripheral blood mononuclear cells after 72 hour incubation at the concentration 60 uM. The following applies: at 60 µM.

With `Nc1nc(Cl)nc2c1ncn2C1OC(CO)CC1O` (stereo not given), the Apoptotic cells in experiment [1] came out at 11.4%; in experiment [2], 13%; in experiment [3] it was 7.7%; in experiment [4] it was 10.4%.
As to `Nc1ccnc2c1ncn2[C@@H]1O[C@H](CO)[C@@H](O)[C@H]1O`, the Apoptotic cells in experiment [1] is 12.8%; in experiment [2], 16.6%; in experiment [3] it was 8%; in experiment [4], 10.7%.
The like results for `OC[C@H]1O[C@@H](n2cnc3c(NC4CCCC4)nc(Cl)nc32)[C@H](O)[C@@H]1O` were, in that order, 9.6%, 10.4%, 5.4% and 11%.
The corresponding values for `Nc1nc(Cl)cc2c1ncn2[C@H]1C[C@H](O)[C@@H](CO)O1` are 34.5%, 20.2%, 16.6% and 59.2%.
On to `OC[C@H]1O[C@@H](n2cnc3c(NC4CCCC4)nc(Cl)cc32)C[C@@H]1O`, for which the Apoptotic cells stood at 14.9% in experiment [1], 13.5% in experiment [2], 13.1% in experiment [3] and 15.2% in experiment [4].
Take `CNC(=O)C1OC(n2cnc3c(N)nc(Cl)nc32)CC1O` (stereo not given): the Apoptotic cells came to 10.4% in experiment [1], 8.1% in experiment [2], 4.5% in experiment [3] and 10.7% in experiment [4].
In the case of `Nc1nc(I)nc2c1ncn2[C@@H]1O[C@H](CO)[C@@H](O)[C@H]1O`, the Apoptotic cells in experiment [1] worked out at 12%; in experiment [2], 12.1%; in experiment [3], 9.1%; in experiment [4], 12.2%.
For `OC[C@H]1O[C@@H](n2cnc3c(NC4CC4)cc(Cl)nc32)C[C@@H]1O`, the Apoptotic cells worked out at 10.8% in experiment [1], 10.4% in experiment [2], 7.3% in experiment [3] and 11.4% in experiment [4].
Consider `OC[C@H]1O[C@@H](n2cnc3c(NC4CCCCCC4)ccnc32)C[C@@H]1O`, for which the Apoptotic cells amounted to 8.9% in experiment [1], 8.1% in experiment [2], 7.7% in experiment [3] and 9.6% in experiment [4].
As to `OC[C@H]1O[C@@H](n2cnc3c(NC4CC4)nc(Cl)nc32)C[C@@H]1O`, the Apoptotic cells in experiment [1] worked out at 17.9%; in experiment [2], 7.7%; in experiment [3] it was 7.8%; in experiment [4], 24.7%.
As to `Nc1nc(Cl)nc2c1ncn2C1CCC(CO)O1` (stereo not given), the Apoptotic cells in experiment [1] is recorded as 9.6%; in experiment [2] it was 8.5%; in experiment [3] it was 4.7%; in experiment [4] it was 11.4%.
The like results for `OC[C@H]1O[C@@H](n2cnc3c(NC4CC4)ncnc32)C[C@@H]1O` were, in that order, 9.5%, 9.5%, 7.1% and 10.6%.
`OC[C@H]1O[C@@H](n2cnc3c(NC4CCCC4)ccnc32)C[C@@H]1O`: the Apoptotic cells in experiment [1] amounted to 9.5%; in experiment [2] it was 9.8%; in experiment [3], 9.8%; in experiment [4], 9.9%.
For `OC[C@H]1O[C@@H](n2cnc3c(NC4CCCC4)cc(Cl)nc32)C[C@@H]1O`, the Apoptotic cells in experiment [1] is 12%; in experiment [2] it was 9.7%; in experiment [3], 8.6%; in experiment [4], 13.9%.
The corresponding values for `Nc1nccc2c1ncn2[C@@H]1O[C@H](CO)[C@@H](O)[C@H]1O` are 11.9%, 6.5%, 9.9% and 10.7%.
For the molecule `Nc1cc(Cl)nc2c1ncn2[C@H]1C[C@H](O)[C@@H](CO)O1`, the Apoptotic cells in experiment [1] came out at 9.8%; in experiment [2], 8.7%; in experiment [3], 5%; in experiment [4], 10.6%.
Turning to `OC[C@H]1O[C@@H](n2cnc3c(NC4CCCCCC4)ncnc32)C[C@@H]1O`, the Apoptotic cells in experiment [1] turned out to be 9.8%; in experiment [2] it was 9.4%; in experiment [3], 8%; in experiment [4], 11.1%.
The corresponding values for `Nc1nc(Cl)nc2c1ncn2[C@@H]1O[C@H](CO)[C@@H](O)[C@H]1O` are 82.7%, 41.8%, 8.8% and 91.9%.
Consider `OC[C@H]1O[C@@H](n2cnc3c(NC4CCCC4)nc(Cl)nc32)C[C@@H]1O`, for which the Apoptotic cells in experiment [1] stood at 18.8%; in experiment [2] it was 10%; in experiment [3] it was 4.7%; in experiment [4], 38.8%.
As to `Nc1nc(Cl)nc2c1ncn2[C@H]1C[C@H](O)[C@@H](CO)O1` [CLADRIBINE], the Apoptotic cells in experiment [1] is listed as 93.8%; in experiment [2] it was 91.2%; in experiment [3], 91%; in experiment [4], 94.7%.
The corresponding values for `OC[C@H]1O[C@@H](n2cnc3c(NC4CCCCCC4)cc(Cl)nc32)C[C@@H]1O` are 9.6%, 7.9%, 7.4% and 10.5%.
With `OC[C@H]1O[C@@H](n2cnc3c(NC4CCCCCC4)nc(Cl)nc32)C[C@@H]1O`, the Apoptotic cells in experiment [1] came out at 12.3%; in experiment [2] it was 7.9%; in experiment [3], 8.2%; in experiment [4] it was 16.3%.
Turning to `Nc1nc(Cl)cc2c1ncn2C1O[C@H](CO)[C@@H](O)[C@H]1O` (stereo not given in full), the Apoptotic cells in experiment [1] is recorded as 9.6%; in experiment [2], 9%; in experiment [3], 9.6%; in experiment [4], 10.3%.
In the case of `Nc1cc(Cl)nc2c1ncn2[C@@H]1O[C@H](CO)[C@@H](O)[C@H]1O`, the Apoptotic cells amounted to 11.1% in experiment [1], 10.4% in experiment [2], 10.2% in experiment [3] and 12.1% in experiment [4].
Consider `OC[C@H]1O[C@@H](n2cnc3c(NC4CCCC4)ncnc32)C[C@@H]1O`, for which the Apoptotic cells was determined as 7.1% in experiment [1], 7.9% in experiment [2], 6.7% in experiment [3] and 8.7% in experiment [4].

Source of the values: ChEMBL document CHEMBL1130967, “Modulation of apoptosis in human lymphocytes by adenosine analogues” (1998).
